{
  "source": "patent US10897901B2",
  "about": "“Herbicidal composition” (FMC Corporation, priority 2007, dated 2021)",
  "type_in_all_cases": "in vivo",
  "key": {"[1]": {"test_system": "Ivyleaf Morningglory (Ipomoea hederacea)", "assay": "Example 4 post-emergence greenhouse pot test, morningglory", "method": "(§1) Test compositions containing sulfentrazone (75 DF formulation), quniclorac, (DRIVE® 75 DF Herbicide) or mixtures of sulfentrazone and quinclorac at ratios of 1:1 to 1:5, were diluted with water to provide the appropriate test rate concentrations. A nonionic surfactant (0.25%) was added to each test solution. The test weeds include crabgrass (Digitaria sp), Chickweed (Stellaria media), Hemp Sesbania (Sesbania exaltata), Kochia (Kochia scoparia), Ivyleaf Morningglory (Ipomoea hederacea), Redroot Pigweed (Amaranthus retroflexus) and yellow nutsedge (Cyperus esculentusi).\n(§2) For post-emergence testing, three disposable 3 inch square pots for each rate of application of each herbicide were filled with a soil, comprised of peat moss, vermiculite, bark ash, pine bark, limestone and a wetting agent, to which 8 to 10 seeds were planted. The pots were placed in a greenhouse and watered daily, thus allowing the seeds to germinate and the foliage to develop for 22 days, 3 months for Kochia.\n(§3) Pots designated for treatment were placed on a conveyor belt and the conveyor belt fed under a spray nozzle mounted about ten inches above the foliage. The spray of herbicidal solution was commenced and once stabilized; the pots were passed under the spray at a speed to receive a coverage equivalent of 30 gallons per acre. The application rates are those shown in Table 4 below for the individual herbicidal solutions and the mixture of sulfentrazone and quinclorac. The post-emergence pots were immediately placed in the green-house and not watered until 24 hours after treatment with the test solution. Thereafter they were regularly watered at ground level. The control of weeds was evaluated in each experimental test from 2 to 20 days after treatment (DAT). The results, shown as an average of the replications, were compared with results observed in untreated control pots in the same tests.\n(§4) Percent control was determined by a method similar to the 0 to 100 rating system disclosed in “Research Methods in Weed Science,” 2nd ed., B. Truelove, Ed.; Southern Weed Science Society; Auburn University, Auburn, Ala., 1977."}, "[2]": {"test_system": "yellow nutsedge (Cyperus esculentusi)", "assay": "Example 4 post-emergence greenhouse pot test, nutsedge", "method": "as §1, §2, §3, §4"}, "[3]": {"test_system": "Hemp Sesbania (Sesbania exaltata)", "assay": "Example 4 post-emergence greenhouse pot test, hemp sesbania", "method": "as §1, §2, §3, §4"}},
  "data": [
    {"compound": "O=C(O)c1c(Cl)ccc2cc(Cl)cnc12", "note": "[B, 3,7-dichloro-8-quinolinecarboxylic acid]", "values": [
      {"measurement": "Percent Control", "setting": "[1]; 0.25 lb ai/acre, 20 DAT", "value": 70, "unit": "%"},
      {"measurement": "Percent Control", "setting": "[1]; 0.5 lb ai/acre, 2 DAT", "value": 20, "unit": "%"},
      {"measurement": "Percent Control", "setting": "[1]; 0.5 lb ai/acre, 7 DAT", "value": 25, "unit": "%"},
      {"measurement": "Percent Control", "setting": "[1]; 0.5 lb ai/acre, 14 DAT", "value": 40, "unit": "%"},
      {"measurement": "Percent Control", "setting": "[1]; 0.5 lb ai/acre, 20 DAT", "value": 50, "unit": "%"},
      {"measurement": "Percent Control", "setting": "[1]; 0.75 lb ai/acre, 2 DAT", "value": 20, "unit": "%"},
      {"measurement": "Percent Control", "setting": "[1]; 0.75 lb ai/acre, 7 DAT", "value": 25, "unit": "%"},
      {"measurement": "Percent Control", "setting": "[1]; 0.75 lb ai/acre, 14 DAT", "value": 40, "unit": "%"},
      {"measurement": "Percent Control", "setting": "[1]; 0.75 lb ai/acre, 20 DAT", "value": 50, "unit": "%"},
      {"measurement": "Percent Control", "setting": "[1]; 1.0 lb ai/acre, 2 DAT", "value": 20, "unit": "%"},
      {"measurement": "Percent Control", "setting": "[1]; 1.0 lb ai/acre, 7 DAT", "value": 25, "unit": "%"},
      {"measurement": "Percent Control", "setting": "[1]; 1.0 lb ai/acre, 14 DAT", "value": 50, "unit": "%"},
      {"measurement": "Percent Control", "setting": "[1]; 1.0 lb ai/acre, 20 DAT", "value": 70, "unit": "%"},
      {"measurement": "Percent Control", "setting": "[1]; 1.25 lb ai/acre, 2 DAT", "value": 20, "unit": "%"},
      {"measurement": "Percent Control", "setting": "[1]; 1.25 lb ai/acre, 7 DAT", "value": 25, "unit": "%"},
      {"measurement": "Percent Control", "setting": "[1]; 1.25 lb ai/acre, 14 DAT", "value": 40, "unit": "%"},
      {"measurement": "Percent Control", "setting": "[1]; 1.25 lb ai/acre, 20 DAT", "value": 50, "unit": "%"},
      {"measurement": "Percent Control", "setting": "[2]; 0.25 lb ai/acre, 2 DAT", "value": 0, "unit": "%"},
      {"measurement": "Percent Control", "setting": "[2]; 0.25 lb ai/acre, 7 DAT", "value": 0, "unit": "%"},
      {"measurement": "Percent Control", "setting": "[2]; 0.25 lb ai/acre, 14 DAT", "value": 0, "unit": "%"},
      {"measurement": "Percent Control", "setting": "[2]; 0.25 lb ai/acre, 20 DAT", "value": 0, "unit": "%"},
      {"measurement": "Percent Control", "setting": "[2]; 0.5 lb ai/acre, 2 DAT", "value": 0, "unit": "%"},
      {"measurement": "Percent Control", "setting": "[2]; 0.5 lb ai/acre, 7 DAT", "value": 0, "unit": "%"},
      {"measurement": "Percent Control", "setting": "[2]; 0.5 lb ai/acre, 14 DAT", "value": 0, "unit": "%"},
      {"measurement": "Percent Control", "setting": "[2]; 0.5 lb ai/acre, 20 DAT", "value": 0, "unit": "%"},
      {"measurement": "Percent Control", "setting": "[2]; 0.75 lb ai/acre, 2 DAT", "value": 0, "unit": "%"},
      {"measurement": "Percent Control", "setting": "[2]; 0.75 lb ai/acre, 7 DAT", "value": 0, "unit": "%"},
      {"measurement": "Percent Control", "setting": "[2]; 0.75 lb ai/acre, 14 DAT", "value": 0, "unit": "%"},
      {"measurement": "Percent Control", "setting": "[2]; 0.75 lb ai/acre, 20 DAT", "value": 0, "unit": "%"},
      {"measurement": "Percent Control", "setting": "[2]; 1.0 lb ai/acre, 2 DAT", "value": 0, "unit": "%"},
      {"measurement": "Percent Control", "setting": "[2]; 1.0 lb ai/acre, 7 DAT", "value": 0, "unit": "%"},
      {"measurement": "Percent Control", "setting": "[2]; 1.0 lb ai/acre, 14 DAT", "value": 0, "unit": "%"},
      {"measurement": "Percent Control", "setting": "[2]; 1.0 lb ai/acre, 20 DAT", "value": 0, "unit": "%"},
      {"measurement": "Percent Control", "setting": "[2]; 1.25 lb ai/acre, 2 DAT", "value": 0, "unit": "%"},
      {"measurement": "Percent Control", "setting": "[2]; 1.25 lb ai/acre, 7 DAT", "value": 0, "unit": "%"},
      {"measurement": "Percent Control", "setting": "[2]; 1.25 lb ai/acre, 14 DAT", "value": 0, "unit": "%"},
      {"measurement": "Percent Control", "setting": "[2]; 1.25 lb ai/acre, 20 DAT", "value": 0, "unit": "%"},
      {"measurement": "Percent Control", "setting": "[3]; 0.25 lb ai/acre, 2 DAT", "value": 0, "unit": "%"},
      {"measurement": "Percent Control", "setting": "[3]; 0.25 lb ai/acre, 7 DAT", "value": 0, "unit": "%"},
      {"measurement": "Percent Control", "setting": "[3]; 0.25 lb ai/acre, 14 DAT", "value": 5, "unit": "%"},
      {"measurement": "Percent Control", "setting": "[3]; 0.25 lb ai/acre, 20 DAT", "value": 20, "unit": "%"},
      {"measurement": "Percent Control", "setting": "[3]; 0.5 lb ai/acre, 2 DAT", "value": 0, "unit": "%"},
      {"measurement": "Percent Control", "setting": "[3]; 0.5 lb ai/acre, 7 DAT", "value": 10, "unit": "%"},
      {"measurement": "Percent Control", "setting": "[3]; 0.5 lb ai/acre, 14 DAT", "value": 20, "unit": "%"},
      {"measurement": "Percent Control", "setting": "[3]; 0.5 lb ai/acre, 20 DAT", "value": 60, "unit": "%"},
      {"measurement": "Percent Control", "setting": "[3]; 0.75 lb ai/acre, 2 DAT", "value": 0, "unit": "%"},
      {"measurement": "Percent Control", "setting": "[3]; 0.75 lb ai/acre, 7 DAT", "value": 0, "unit": "%"},
      {"measurement": "Percent Control", "setting": "[3]; 0.75 lb ai/acre, 14 DAT", "value": 10, "unit": "%"},
      {"measurement": "Percent Control", "setting": "[3]; 0.75 lb ai/acre, 20 DAT", "value": 60, "unit": "%"},
      {"measurement": "Percent Control", "setting": "[3]; 1.0 lb ai/acre, 2 DAT", "value": 10, "unit": "%"},
      {"measurement": "Percent Control", "setting": "[3]; 1.0 lb ai/acre, 7 DAT", "value": 10, "unit": "%"},
      {"measurement": "Percent Control", "setting": "[3]; 1.0 lb ai/acre, 14 DAT", "value": 20, "unit": "%"},
      {"measurement": "Percent Control", "setting": "[3]; 1.0 lb ai/acre, 20 DAT", "value": 60, "unit": "%"},
      {"measurement": "Percent Control", "setting": "[3]; 1.25 lb ai/acre, 2 DAT", "value": 0, "unit": "%"},
      {"measurement": "Percent Control", "setting": "[3]; 1.25 lb ai/acre, 7 DAT", "value": 0, "unit": "%"},
      {"measurement": "Percent Control", "setting": "[3]; 1.25 lb ai/acre, 14 DAT", "value": 10, "unit": "%"},
      {"measurement": "Percent Control", "setting": "[3]; 1.25 lb ai/acre, 20 DAT", "value": 50, "unit": "%"}
    ]}
  ]
}
